Measurements taken from ChEMBL document CHEMBL1140941 (J Med Chem, 2009).
Activity calls are given as the source filed them. The rule behind the calls is not given here.

What was measured:
[1] = target: T1, Mineralocorticoid receptor (Homo sapiens) (UniProt P08235); assay: Antagonist activity at gal-MR expressed in african green monkey CV1 cells co-expressing MH100 at 10 uM by luciferase reporter gene assay; type: functional, cell-based; settings: CV-1
T1 sequence (whole entry): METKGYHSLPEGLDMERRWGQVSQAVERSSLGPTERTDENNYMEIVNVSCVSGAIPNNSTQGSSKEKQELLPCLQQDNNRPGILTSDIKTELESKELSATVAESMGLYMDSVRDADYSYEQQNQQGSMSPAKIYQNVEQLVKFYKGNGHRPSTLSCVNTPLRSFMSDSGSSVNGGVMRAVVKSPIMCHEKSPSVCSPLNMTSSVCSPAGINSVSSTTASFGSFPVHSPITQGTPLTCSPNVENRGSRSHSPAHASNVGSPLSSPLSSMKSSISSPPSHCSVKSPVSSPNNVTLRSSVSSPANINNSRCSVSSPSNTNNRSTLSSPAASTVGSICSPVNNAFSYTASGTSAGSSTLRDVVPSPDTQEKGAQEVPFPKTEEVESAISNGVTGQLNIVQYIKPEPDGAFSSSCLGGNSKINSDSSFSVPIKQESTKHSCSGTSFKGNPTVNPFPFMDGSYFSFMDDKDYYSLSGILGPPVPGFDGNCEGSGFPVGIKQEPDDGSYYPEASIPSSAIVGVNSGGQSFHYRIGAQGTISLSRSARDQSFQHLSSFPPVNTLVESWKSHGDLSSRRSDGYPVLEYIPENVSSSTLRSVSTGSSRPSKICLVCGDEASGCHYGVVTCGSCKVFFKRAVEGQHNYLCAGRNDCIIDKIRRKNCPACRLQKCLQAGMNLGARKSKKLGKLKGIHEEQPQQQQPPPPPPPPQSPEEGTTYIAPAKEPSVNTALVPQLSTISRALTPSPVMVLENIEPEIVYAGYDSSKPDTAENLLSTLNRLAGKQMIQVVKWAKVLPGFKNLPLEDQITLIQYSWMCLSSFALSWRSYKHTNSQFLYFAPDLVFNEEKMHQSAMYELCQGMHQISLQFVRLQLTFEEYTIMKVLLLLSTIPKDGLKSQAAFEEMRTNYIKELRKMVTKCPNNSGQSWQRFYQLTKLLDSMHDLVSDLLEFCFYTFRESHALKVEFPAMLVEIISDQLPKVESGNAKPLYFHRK

[2] = target: Oxysterols receptor LXR-alpha (Homo sapiens) (UniProt Q13133); assay: Agonist activity at LXRalpha expressed in african green monkey CV1 cells co-expressing LXRE up to 10 uM by luciferase reporter gene assay relative to control; type: functional, cell-based; settings: CV-1
Chain of Oxysterols receptor LXR-alpha (Homo sapiens) (Q13133 whole entry): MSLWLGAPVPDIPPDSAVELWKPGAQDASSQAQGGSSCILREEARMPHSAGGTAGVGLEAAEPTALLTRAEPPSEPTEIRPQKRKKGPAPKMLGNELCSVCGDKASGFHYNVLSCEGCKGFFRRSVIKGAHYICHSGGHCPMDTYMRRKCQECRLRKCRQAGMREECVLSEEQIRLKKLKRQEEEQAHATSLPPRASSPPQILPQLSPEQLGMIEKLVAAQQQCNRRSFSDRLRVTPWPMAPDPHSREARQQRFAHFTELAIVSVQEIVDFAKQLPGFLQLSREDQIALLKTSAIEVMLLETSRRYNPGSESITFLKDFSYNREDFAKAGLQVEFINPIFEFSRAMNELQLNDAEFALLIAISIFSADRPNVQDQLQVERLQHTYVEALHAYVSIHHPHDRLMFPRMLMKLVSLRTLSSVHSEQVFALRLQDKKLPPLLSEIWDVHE

[3] = Half life in CD rat at 3 mg/kg, po; type: ADME, organism-based; design: dose 3 mg/kg, route oral; settings: in vivo
[4] = target: T2, Glucocorticoid receptor (Homo sapiens) (UniProt P04150); assay: Agonist activity at gal-GR expressed in african green monkey CV1 cells co-expressing MH100 by luciferase reporter gene assay; type: functional, cell-based; settings: CV-1
T2 sequence (whole entry): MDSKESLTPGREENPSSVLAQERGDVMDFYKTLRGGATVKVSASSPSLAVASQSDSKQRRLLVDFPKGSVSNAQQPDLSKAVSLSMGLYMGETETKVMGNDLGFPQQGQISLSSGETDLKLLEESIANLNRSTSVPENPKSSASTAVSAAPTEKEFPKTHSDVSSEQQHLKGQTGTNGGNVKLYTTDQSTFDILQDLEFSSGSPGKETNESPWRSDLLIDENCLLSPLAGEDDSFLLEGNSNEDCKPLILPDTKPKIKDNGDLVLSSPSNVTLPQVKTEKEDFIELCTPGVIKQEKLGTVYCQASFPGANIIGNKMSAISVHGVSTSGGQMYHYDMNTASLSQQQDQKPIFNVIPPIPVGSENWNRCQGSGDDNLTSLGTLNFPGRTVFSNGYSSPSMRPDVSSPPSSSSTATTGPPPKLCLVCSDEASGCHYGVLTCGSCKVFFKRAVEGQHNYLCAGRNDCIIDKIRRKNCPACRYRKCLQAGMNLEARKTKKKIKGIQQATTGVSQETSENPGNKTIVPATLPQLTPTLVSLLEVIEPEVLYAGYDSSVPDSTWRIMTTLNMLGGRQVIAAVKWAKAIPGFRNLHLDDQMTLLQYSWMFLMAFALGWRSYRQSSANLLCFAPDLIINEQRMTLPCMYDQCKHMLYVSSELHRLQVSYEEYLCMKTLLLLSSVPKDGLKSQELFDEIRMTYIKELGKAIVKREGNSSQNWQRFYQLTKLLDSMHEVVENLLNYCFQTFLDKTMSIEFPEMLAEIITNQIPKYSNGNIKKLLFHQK

[5] = target: T3, Bile acid receptor (Homo sapiens) (UniProt Q96RI1); assay: Agonist activity at human FXR expressed in african green monkey CV1 cells co-expressing ECRE with RXR co-factor up to 10 uM by luciferase reporter gene assay relative to CDCA; type: functional, cell-based; settings: CV-1
T3 sequence (whole entry): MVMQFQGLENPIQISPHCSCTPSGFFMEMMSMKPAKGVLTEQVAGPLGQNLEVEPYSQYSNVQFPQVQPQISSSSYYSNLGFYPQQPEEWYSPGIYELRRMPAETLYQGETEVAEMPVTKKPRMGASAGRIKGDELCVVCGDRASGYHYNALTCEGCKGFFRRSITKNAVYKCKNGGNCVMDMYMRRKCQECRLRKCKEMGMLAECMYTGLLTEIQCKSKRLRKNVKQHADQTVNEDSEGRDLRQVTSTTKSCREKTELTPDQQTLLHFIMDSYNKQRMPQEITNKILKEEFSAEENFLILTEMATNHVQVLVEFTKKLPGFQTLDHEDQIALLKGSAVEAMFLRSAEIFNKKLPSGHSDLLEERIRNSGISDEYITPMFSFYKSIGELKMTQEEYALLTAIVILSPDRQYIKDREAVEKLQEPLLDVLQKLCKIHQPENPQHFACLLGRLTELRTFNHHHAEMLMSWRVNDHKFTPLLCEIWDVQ

[6] = target: T2, Glucocorticoid receptor (Homo sapiens); assay: Antagonist activity at gal-GR expressed in african green monkey CV1 cells co-expressing MH100 at 10 uM by luciferase reporter gene assay; type: functional, cell-based; settings: CV-1
[7] = target: T2, Glucocorticoid receptor (Homo sapiens); assay: Agonist activity at gal-GR expressed in african green monkey CV1 cells co-expressing MH100 up to 10 uM by luciferase reporter gene assay relative to control; type: functional, cell-based; settings: CV-1

CC(C)OC(=O)C1=CN(C(=O)c2ccc(F)c(F)c2)CC(C)(C)c2c1[nH]c1ccccc21 [TUROFEXORATE ISOPROPYL]
inhibition [1]: 27%
Activity [2]: inactive
half-life [3]: 24.6 h
Activity [4]: inactive
Efficacy [5]: 149%
inhibition [6]: 35%
Activity [7]: inactive
